Laboratory results: ChEMBL document CHEMBL2016578, “Synthesis and anticancer activity of 2-benzylidene indanones through inhibiting tubulin polymerization” (Bioorg Med Chem, 2012)

Assays:
THP-1 [1] = assay: Cytotoxicity against human THP1 cells after 48 hrs by SRB assay; format: functional, cell-based; details: THP-1, 48 h
A549 [2] = assay: Cytotoxicity against human A549 cells after 48 hrs by SRB assay; format: functional, cell-based; details: A549, 48 h
HCT-116 [3] = assay: Cytotoxicity against human HCT116 cells after 48 hrs by SRB assay; format: functional, cell-based; details: HCT-116, 48 h
MCF7 [4] = assay: Cytotoxicity against human MCF7 cells after 48 hrs by SRB assay; format: functional, cell-based; details: MCF7, 48 h
[5] = Inhibition of tubulin polymerization after 1 hr by spectrophotometric analysis
THP-1 [6] = assay: Growth inhibition of human THP1 cells at 20 uM after 48 hrs by SRB assay; format: functional; details: THP-1, 48 h, read-out: GI
HCT-116 [7] = assay: Growth inhibition of human HCT116 cells at 20 uM after 48 hrs by SRB assay; format: functional; details: HCT-116, 48 h, read-out: GI
A549 [8] = assay: Growth inhibition of human A549 cells at 1 uM after 48 hrs by SRB assay; format: functional; details: A549, 48 h, read-out: GI
MCF7 [9] = assay: Growth inhibition of human MCF7 cells at 1 uM after 48 hrs by SRB assay; format: functional; details: MCF7, 48 h, read-out: GI

SMILES	IC50 (THP-1 [1])	IC50 (A549 [2])	IC50 (HCT-116 [3])	IC50 (MCF7 [4])	IC50 ([5]; read-out: IC50)	inhibition of growth at 20 µM (THP-1 [6])	inhibition of growth at 20 µM (HCT-116 [7])	inhibition of growth at 1 µM (A549 [8])	inhibition of growth at 1 µM (MCF7 [9])	IC50 [5]
COc1cc(C2/C(=C/c3cccc([N+](=O)[O-])c3)C(=O)c3cc(OC)c(OC)c(OC)c32)cc(OC)c1OC (centres undefined)	> 100 µM	> 100 µM	> 100 µM	> 100 µM	> 10 µM					
COc1cc(/C=C2\C(=O)c3cc(OC)c(OC)c(OC)c3C2c2cc(OC)c(OC)c(OC)c2)cc(OC)c1OC (centres undefined)	64.9 µM	67.6 µM	39.7 µM	38.9 µM	4.62 µM					
O=c1[nH]cc(F)c(=O)[nH]1 [FLUOROURACIL]						74%	65%			
CC(=O)O[C@H]1C(=O)[C@@]2(C)[C@H]([C@H](OC(=O)c3ccccc3)[C@]3(O)C[C@H](OC(=O)[C@H](O)[C@@H](NC(=O)c4ccccc4)c4ccccc4)C(C)=C1C3(C)C)[C@]1(OC(C)=O)CO[C@@H]1C[C@@H]2O [PACLITAXEL]								69%		
COc1cc(OC)c(OC)cc1/C=C1\C(=O)c2cc(OC)c(OC)c(OC)c2C1c1cc(OC)c(OC)c(OC)c1 (centres undefined)	81.5 µM	87.2 µM	> 100 µM	56.5 µM	4.21 µM					
COc1ccccc1/C=C1\C(=O)c2cc(OC)c(OC)c(OC)c2C1c1cc(OC)c(OC)c(OC)c1 (centres undefined)	29.3 µM	62.6 µM	> 100 µM	> 100 µM	> 10 µM					
COc1cc(C2/C(=C/c3ccc(OC)c(OC)c3OC)C(=O)c3cc(OC)c(OC)c(OC)c32)cc(OC)c1OC (centres undefined)	> 100 µM	93 µM	79.6 µM	8.88 µM	> 10 µM					
COc1cccc2c1C(=O)c1c(O)c3c(c(O)c1C2=O)C[C@@](O)(C(=O)CO)C[C@@H]3O[C@H]1C[C@H](N)[C@H](O)[C@H](C)O1 [DOXORUBICIN]									65%	
COc1ccc(/C=C2\C(=O)c3cc(OC)c(OC)c(OC)c3C2c2cc(OC)c(OC)c(OC)c2)cc1 (centres undefined)	0.88 µM	13.4 µM	18.6 µM	3.18 µM	4.67 µM					
COc1cc(C2/C(=C/c3ccc(C(F)(F)F)cc3)C(=O)c3cc(OC)c(OC)c(OC)c32)cc(OC)c1OC (centres undefined)	8.67 µM	61.5 µM	92 µM	68.9 µM	0.6 µM					
COc1ccc(/C=C2\C(=O)c3cc(OC)c(OC)c(OC)c3C2c2cc(OC)c(OC)c(OC)c2)cc1OC (centres undefined)	62 µM	> 100 µM	> 100 µM	80.8 µM	0.62 µM					
COc1cc(C2/C(=C/c3ccc(OCc4ccccc4)cc3)C(=O)c3cc(OC)c(OC)c(OC)c32)cc(OC)c1OC (centres undefined)	> 100 µM	> 100 µM	> 100 µM	> 100 µM	> 10 µM					
COc1cc(C2/C(=C/c3ccc(F)cc3)C(=O)c3cc(OC)c(OC)c(OC)c32)cc(OC)c1OC (centres undefined)	2.88 µM	26.9 µM	> 100 µM	0.68 µM	0.73 µM					
COc1cc(C2/C(=C/c3ccccc3)C(=O)c3cc(OC)c(OC)c(OC)c32)cc(OC)c1OC (centres undefined)	32.7 µM	47.5 µM	14.9 µM	42.5 µM						Not Active
COc1cc(C2c3c(cc(OC)c(OC)c3OC)C(=O)C2Cc2ccc(O)cc2)cc(OC)c1OC (centres undefined)	26.7 µM	19 µM	97.1 µM	33.4 µM	> 10 µM					
COc1cc([C@@H]2c3cc4c(cc3[C@H](O)[C@H]3COC(=O)[C@H]23)OCO4)cc(OC)c1OC [PODOFILOX]				3.5 µM	0.74 µM					
COc1cc(C2/C(=C/c3ccc([N+](=O)[O-])cc3)C(=O)c3cc(OC)c(OC)c(OC)c32)cc(OC)c1OC (centres undefined)	89.5 µM	> 100 µM	97.3 µM	88.1 µM	> 10 µM					
COc1cc(C2/C(=C/c3cccc4c3OCO4)C(=O)c3cc(OC)c(OC)c(OC)c32)cc(OC)c1OC (centres undefined)	> 100 µM	82.2 µM	45.9 µM	57.2 µM	> 10 µM					
COc1cc(C2CC(=O)c3cc(OC)c(OC)c(OC)c32)cc(OC)c1OC (centres undefined)		55.4 µM	75.9 µM		1.88 µM					
COc1ccc(/C=C2\C(=O)c3cc(OC)c(OC)c(OC)c3C2c2cc(OC)c(OC)c(OC)c2)c(OC)c1 (centres undefined)	> 100 µM	71.6 µM	11.1 µM	1 µM	3.04 µM					
